What was measured:
Type in all cases: in vivo
[1] = test system: bromegrass, downy (downy bromegrass, Bromus tectorum); assay: Test C pre-/postemergence: bromegrass, downy
Method in brief: (§1)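 Visual injury scored 0–100 (100 = complete control) against untreated controls after 13–15 greenhouse days. Surfactant-containing solvent formulations applied either to soil after sowing (loam/sand) or over 1- to 4-leaf plants, 2–18 cm tall.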

[2] = test system: foxtail, green (green foxtail, Setaria viridis); assay: Test C pre-/postemergence: foxtail, green
Method in brief: as §1

[3] = test system: bermudagrass (Cynodon dactylon); assay: Test C pre-/postemergence: bermudagrass
Method in brief: as §1

[4] = test system: surinam grass (Brachiaria decumbens); assay: Test C pre-/postemergence: surinam grass
Method in brief: as §1

[5] = test system: cocklebur (common cocklebur, Xanthium strumarium); assay: Test C pre-/postemergence: cocklebur
Method in brief: as §1

[6] = test system: woolly cupgrass (Eriochloa villosa); assay: Test C pre-/postemergence: woolly cupgrass
Method in brief: as §1

[7] = test system: goosegrass (Eleusine indica); assay: Test C pre-/postemergence: goosegrass
Method in brief: as §1

[8] = test system: common (oilseed) sunflower (Helianthus annuus); assay: Test C pre-/postemergence: sunflower; conditions: Preemergence
Method in brief: as §1

[9] = test system: barley (winter barley, Hordeum vulgare); assay: Test C postemergence: barley
Method in brief: (§2)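 Visual ratings of 0 (no effect) to 100 (complete control) were made against controls 13-15 days after a postemergence spray, with plants kept in a greenhouse. Plants were 2-18 cm tall (1- to 4-leaf stage) in Redi-Earth peat/vermiculite medium at treatment.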

[10] = test system: windgrass (Apera spica-venti); assay: Test C postemergence: windgrass
Method in brief: as §2

[11] = Postemergence, 31 g ai/ha, scale 0 to 100 (0 no effect, 100 complete control)
[12] = Postemergence, 62 g ai/ha, scale 0 to 100 (0 no effect, 100 complete control)
[13] = Postemergence, 125 g ai/ha, scale 0 to 100, 0 no effect, 100 complete control
[14] = Postemergence, 250 g ai/ha, scale 0 to 100
[15] = Preemergence, 31 g ai/ha, scale of 0 to 100, 0 is no effect, 100 is complete control
[16] = Preemergence, 62 g ai/ha, scale 0 to 100, 0 no effect, 100 complete control
[17] = Preemergence, 125 g ai/ha, scale 0 to 100, 0 no effect, 100 complete control
[18] = Preemergence, 250 g ai/ha, scale 0 to 100, 0 no effect, 100 complete control
[19] = Preemergence, 62 g ai/ha, scale of 0 to 100, 0 is no effect, 100 is complete control
[20] = 31 g ai/ha, scale of 0 to 100, 0 is no effect, 100 is complete control
[21] = 125 g ai/ha, scale 0 to 100, 0 no effect, 100 complete control
[22] = 250 g ai/ha, scale 0 to 100, 0 no effect, 100 complete control
[23] = 31 g ai/ha, scale 0 to 100 (0 no effect, 100 complete control)
[24] = 62 g ai/ha, scale 0 to 100 (0 no effect, 100 complete control)

## Fc1ccc(-n2nc(Cc3ccnc(C(F)(F)F)c3)c(OC(F)F)n2)cc1 [Compound 25]
[1]; [11]
  Plant response rating, Bromegrass, Downy: 5
[1]; [12]
  Plant response rating, Bromegrass, Downy: 5
[1]; [13]
  Plant response rating, Bromegrass, Downy: 5
[1]; [14]
  Plant response rating, Bromegrass, Downy: 10
[1]; [15]
  Plant response rating, Bromegrass, Downy: 5
[1]; [16]
  Plant response rating, Bromegrass, Downy: 5
[1]; [17]
  Plant response rating, Bromegrass, Downy: 40
[1]; [18]
  Plant response rating, Bromegrass, Downy: 80
[2]; [11]
  Plant response rating, Foxtail, Green: 35
[2]; [12]
  Plant response rating, Foxtail, Green: 35
[2]; [13]
  Plant response rating, Foxtail, Green: 35
[2]; [14]
  Plant response rating, Foxtail, Green: 70
[2]; [15]
  Plant response rating, Foxtail, Green: 90
[2]; [19]
  Plant response rating, Foxtail, Green: 95
[2]; [17]
  Plant response rating, Foxtail, Green: 95
[2]; [18]
  Plant response rating, Foxtail, Green: 95
[3]; [11]
  Plant response rating, Bermudagrass: 15
[3]; [12]
  Plant response rating, Bermudagrass: 20
[3]; [13]
  Plant response rating, Bermudagrass: 25
[3]; [14]
  Plant response rating, Bermudagrass: 25
[3]; [15]
  Plant response rating, Bermudagrass: 85
[3]; [16]
  Plant response rating, Bermudagrass: 98
[3]; [17]
  Plant response rating, Bermudagrass: 98
[3]; [18]
  Plant response rating, Bermudagrass: 100
[4]; [11]
  Plant response rating, Surinam Grass: 10
[4]; [12]
  Plant response rating, Surinam Grass: 15
[4]; [13]
  Plant response rating, Surinam Grass: 20
[4]; [14]
  Plant response rating, Surinam Grass: 20
[4]; [15]
  Plant response rating, Surinam Grass: 15
[4]; [19]
  Plant response rating, Surinam Grass: 20
[4]; [17]
  Plant response rating, Surinam Grass: 55
[4]; [18]
  Plant response rating, Surinam Grass: 100
[5]; [11]
  Plant response rating, Cocklebur: 15
[5]; [12]
  Plant response rating, Cocklebur: 20
[5]; [13]
  Plant response rating, Cocklebur: 20
[5]; [14]
  Plant response rating, Cocklebur: 20
[5]; [15]
  Plant response rating, Cocklebur: 0
[5]; [16]
  Plant response rating, Cocklebur: 0
[5]; [17]
  Plant response rating, Cocklebur: 0
[5]; [18]
  Plant response rating, Cocklebur: 30
[6]; [11]
  Plant response rating, Cupgrass, Woolly: 25
[6]; [12]
  Plant response rating, Cupgrass, Woolly: 25
[6]; [13]
  Plant response rating, Cupgrass, Woolly: 25
[6]; [14]
  Plant response rating, Cupgrass, Woolly: 45
[6]; [15]
  Plant response rating, Cupgrass, Woolly: 20
[6]; [19]
  Plant response rating, Cupgrass, Woolly: 40
[6]; [17]
  Plant response rating, Cupgrass, Woolly: 65
[6]; [18]
  Plant response rating, Cupgrass, Woolly: 98
[7]; [11]
  Plant response rating, Goosegrass: 15
[7]; [12]
  Plant response rating, Goosegrass: 20
[7]; [13]
  Plant response rating, Goosegrass: 25
[7]; [14]
  Plant response rating, Goosegrass: 40
[7]; [15]
  Plant response rating, Goosegrass: 90
[7]; [19]
  Plant response rating, Goosegrass: 100
[7]; [17]
  Plant response rating, Goosegrass: 100
[7]; [18]
  Plant response rating, Goosegrass: 100
[8]; [20]
  Plant response rating, Sunflower: 0
[8]; 62 g ai/ha, scale of 0 to 100, 0 is no effect, 100 is complete control
  Plant response rating, Sunflower: 0
[8]; [21]
  Plant response rating, Sunflower: 0
[8]; [22]
  Plant response rating, Sunflower: 0
[9]; [23]
  Plant response rating, Barley: 20
[9]; [24]
  Plant response rating, Barley: 25
[9]; [21]
  Plant response rating, Barley: 30
[9]; 250 g ai/ha, scale 0 to 100
  Plant response rating, Barley: 30
[10]; [23]
  Plant response rating, Windgrass: 30
[10]; [24]
  Plant response rating, Windgrass: 35
[10]; [21]
  Plant response rating, Windgrass: 40
[10]; 250 g ai/ha, scale 0 to 100
  Plant response rating, Windgrass: 40

## FC(F)Oc1nn(-c2ccc(C(F)(F)F)cc2)nc1Cc1ccnc(C(F)(F)F)c1 [Compound 26]
[1]; [11]
  Plant response rating, Bromegrass, Downy: 15
[1]; [12]
  Plant response rating, Bromegrass, Downy: 30
[1]; [13]
  Plant response rating, Bromegrass, Downy: 40
[1]; [14]
  Plant response rating, Bromegrass, Downy: 50
[1]; [15]
  Plant response rating, Bromegrass, Downy: 5
[1]; [16]
  Plant response rating, Bromegrass, Downy: 45
[1]; [17]
  Plant response rating, Bromegrass, Downy: 50
[1]; [18]
  Plant response rating, Bromegrass, Downy: 85
[2]; [11]
  Plant response rating, Foxtail, Green: 30
[2]; [12]
  Plant response rating, Foxtail, Green: 40
[2]; [13]
  Plant response rating, Foxtail, Green: 70
[2]; [14]
  Plant response rating, Foxtail, Green: 85
[2]; [15]
  Plant response rating, Foxtail, Green: 85
[2]; [19]
  Plant response rating, Foxtail, Green: 95
[2]; [17]
  Plant response rating, Foxtail, Green: 95
[2]; [18]
  Plant response rating, Foxtail, Green: 95
[3]; [11]
  Plant response rating, Bermudagrass: 20
[3]; [12]
  Plant response rating, Bermudagrass: 20
[3]; [13]
  Plant response rating, Bermudagrass: 30
[3]; [14]
  Plant response rating, Bermudagrass: 30
[3]; [15]
  Plant response rating, Bermudagrass: 75
[3]; [16]
  Plant response rating, Bermudagrass: 100
[3]; [17]
  Plant response rating, Bermudagrass: 100
[3]; [18]
  Plant response rating, Bermudagrass: 100
[4]; [11]
  Plant response rating, Surinam Grass: 15
[4]; [12]
  Plant response rating, Surinam Grass: 20
[4]; [13]
  Plant response rating, Surinam Grass: 25
[4]; [14]
  Plant response rating, Surinam Grass: 45
[4]; [15]
  Plant response rating, Surinam Grass: 10
[4]; [19]
  Plant response rating, Surinam Grass: 50
[4]; [17]
  Plant response rating, Surinam Grass: 65
[4]; [18]
  Plant response rating, Surinam Grass: 90
[5]; [11]
  Plant response rating, Cocklebur: 10
[5]; [12]
  Plant response rating, Cocklebur: 15
[5]; [13]
  Plant response rating, Cocklebur: 55
[5]; [14]
  Plant response rating, Cocklebur: 65
[5]; [15]
  Plant response rating, Cocklebur: 0
[5]; [16]
  Plant response rating, Cocklebur: 5
[5]; [17]
  Plant response rating, Cocklebur: 15
[5]; [18]
  Plant response rating, Cocklebur: 55
[6]; [11]
  Plant response rating, Cupgrass, Woolly: 25
[6]; [12]
  Plant response rating, Cupgrass, Woolly: 40
[6]; [13]
  Plant response rating, Cupgrass, Woolly: 45
[6]; [14]
  Plant response rating, Cupgrass, Woolly: 55
[6]; [15]
  Plant response rating, Cupgrass, Woolly: 10
[6]; [19]
  Plant response rating, Cupgrass, Woolly: 65
[6]; [17]
  Plant response rating, Cupgrass, Woolly: 70
[6]; [18]
  Plant response rating, Cupgrass, Woolly: 90
[7]; [11]
  Plant response rating, Goosegrass: 25
[7]; [12]
  Plant response rating, Goosegrass: 30
[7]; [13]
  Plant response rating, Goosegrass: 40
[7]; [14]
  Plant response rating, Goosegrass: 70
[7]; [15]
  Plant response rating, Goosegrass: 95
[7]; [19]
  Plant response rating, Goosegrass: 100
[7]; [17]
  Plant response rating, Goosegrass: 100
[7]; [18]
  Plant response rating, Goosegrass: 100
[8]; [20]
  Plant response rating, Sunflower: 0
[8]; [21]
  Plant response rating, Sunflower: 10
[8]; [22]
  Plant response rating, Sunflower: 15
[9]; [23]
  Plant response rating, Barley: 20
[9]; [24]
  Plant response rating, Barley: 30
[9]; [21]
  Plant response rating, Barley: 30
[9]; 250 g ai/ha, scale 0 to 100
  Plant response rating, Barley: 40
[10]; [23]
  Plant response rating, Windgrass: 40
[10]; [24]
  Plant response rating, Windgrass: 55
[10]; [21]
  Plant response rating, Windgrass: 80
[10]; 250 g ai/ha, scale 0 to 100
  Plant response rating, Windgrass: 80

Reference: US9302999B2, “Substituted triazoles as herbicides” (E. I. DU PONT DE NEMOURS AND COMPANY, priority 2012, dated 2016)
